# According to US12023335B2, “Method for treating pancreatic cancer” (PTC THERAPEUTICS, INC., priority 2018, dated 2024):
# Entries after “also recorded” stand apart in the source; their conditions may differ.
# Experiments:
# tubulin = assay: Analysis of free tubulin content in Aspc1 cells (fractionation, western blot); assay type: cell-based, human; settings: 3.0 μM, 2 hours, relative to vehicle, COL and TAX (FIGS. 11a, 11b)
# Procedure: (§1) Western blotting was carried out on lysates isolated from treated cells. Cells were lysed using RIPA buffer (50 mM Tris, pH 7.4, 150 mM NaCl, 1% Nonidet P-40, 0.1% SDS, 0.5% deoxycholate) supplemented with cOmplete™ EDTA-free Protease Inhibitor Cocktail (Sigma, 11836170001) and Halt™ Phosphatase Inhibitor Cocktail (ThermoFisher, 78420). Lysates were quantified using the Pierce BCA Protein Assay Kit (ThermoFisher, 23227), diluted in SDS sample buffer, resolved by SDS-PAGE (15-30 μg/sample), and transferred onto PVDF membranes. Membranes were blocked with 5% w/v nonfat dry milk in TBS-T (0.1% Tween20) and primary antibodies were incubated overnight at 4° C., diluted in 5% BSA in TBS-T at the indicated concentrations. HRP-conjugated secondary antibodies were incubated in blocking buffer for 1 hour at room temperature before detection using Super Digital-ECL™ substrate solution (Kindle Biosciences, R1002). (FIG. 5b, FIG. 10a and FIG. 11b)
# Free heterodimer tubulin was separated from tubulin incorporated into microtubules according to manufacturer's recommendations using the Microtubule/Tubulin In Vivo Assay Biochem Kit (Cytoskeleton, #BK038). Cells were seeded in 12-well plates such that ˜16 hours later they would be approximately 50-60% confluent. […]
# CYCLIN B1 = assay: Western blot for CYCLIN B1 on tumors from KPC mice; assay type: in vivo; settings: 10 mg/kg; biopsy 48 hours before first dose vs necropsy 24 hours after third dose (FIGS. 5b, 5c)
# Procedure: as §1
# Aspc1 cells [1] = assay: Aspc1 cell viability over time (AlamarBlue proliferation curves); assay type: cell-based, human; settings: 0.1 μM or 1.0 μM, relative to vehicle (FIG. 1a)
# Procedure: For proliferation curves, cells were plated in 96-well plates (Corning, 3603) and allowed to seed overnight. Replicate plates were plated for each time point since viability measurements were an endpoint procedure. The following day, cells were treated with Compound at indicated concentrations and treated with DMSO at the highest used concentration (always below 0.003%). Cells were treated for 96 hours, and viability was determined every 24 hours using AlamarBlue reagent (BioRad, BUF012B). Briefly, 10 μL of AlamarBlue was added to each well (100 μL), mixed briefly, and allowed to incubate at 37° C. and 5% CO2 for 4 hours. Following incubation, fluorescence was measured on a Promega multimode microplate reader. For analysis, background levels were subtracted from raw results, which were then normalized to be represented as a fold change compared to DMSO-treated cells on Day 0. All assays were carried out in at least triplicate with 4-8 technical replicates per treatment group, per experiment. (FIG. 1a and FIG. 10b)
# [2] = Compound 1 levels in plasma, quadriceps and PDA tissue of KPC mice; assay type: in vivo; settings: 24 hours after single oral dose 10 mg/kg (FIG. 5a)
# Procedure: Blood plasma and tissue samples to be used for analysis were immediately frozen on dry ice and stored at −80° C. until analysis. Concentrations of Compound 1 in samples were quantified using high-performance liquid chromatography with tandem mass spectrometry (LC-MS/MS). Compound 1 and its internal standard (deuterated Compound 1) were recovered by protein precipitation extraction from samples.
# For the pharmacokinetic study that assessed plasma, quadriceps muscle, and tumor tissue following a single dose of Compound 1 the assay conditions were as follows (FIG. 5a):
# Plasma: A standard curve was made to cover concentrations between 0.002 ug/mL and 6.0 ug/mL. the LLOQ for Compound 1 (either version) in plasma was 0.001 μg/mL
# Quadriceps muscle: A standard curve was made to cover concentrations between 0.001 μg/g wet tissue and 3.0 μg/g wet tissue. The LLOQ for Compound 1 (either version) was 0.01 μg/g wet tissue.
# Tumor tissue: A standard curve was made to cover concentrations between 0.001 μg/g wet tissue and 3.0 μg/g wet tissue. The LLOQ for Compound 1 (either version) was 0.02 μg/g wet tissue.
# Aspc1 cells [3] = assay: Cell cycle analysis by flow cytometry (DNA content, PH3) in Aspc1 cells; assay type: cell-based, human
# Procedure: Cells were seeded into 12-well or 6-well plates such that 16 hours later they would be approximately 30-50% confluent. Cells were then treated for 24 hours with either DMSO (<0.003%), Compound 1 (100 nM or 1 μM), or 100 nM nocodazole (Sigma, M1404). Following treatment, cells were harvested and fixed in ice-cold 70% ethanol for a minimum of one hour. Following fixation, cells were re-suspended in PBS+2% FBS+3 μM DAPI (BioLegend, 422801) or 0.25 μg 7-AAD (BD Pharmingen, 559925), and analyzed on a MACSQuant® Analyzer 10 (Miltenyi Biotec) or BD LSR II™. For cell cycle analysis time course experiments, cells were prepared as described above, except treated for 24, 48, or 72 hours. Data was analyzed using FlowJo software. Percent populations in G2/M were identified using the univariate cell cycle platform offered by FlowJo software. Percent populations >4N were determined by gating above the 4N population of DMSO-treated cells. (FIG. 1b, FIG. 1c, FIG. 2a, FIG. 2b, FIG. 10e, and FIG. 10g)
# For phospho-Histone H3 (PH3) staining, cells were fixed and permeabilized according to manufacturer's instructions using the eBioscience Foxp3/Transcription Factor Staining Buffer Set (ThermoFisher, 00-5523-00). Cells were blocked with Fc Block (BD Biosciences, 564220) and stained using a PH3 (Ser10) antibody (BioLegend, 650805) with 5 uL per million cells (45 min, room temp, dark). Samples were analyzed on a BD Fortessa™ and analyzed by FlowJo software. (FIG. 1d and FIG. 3a)
structure (smiles),measurement,setting,value
"Cc1nc2ccc(F)cc2n1-c1nc(N)c(F)c(Nc2ccc(C(F)(F)F)cc2)n1 [Compound 1, 5-fluoro-2-(6-fluoro-2-methyl-1H-benzo[d]imidazol-1-yl)-N4-[4-(trifluoromethyl)phenyl]pyrimidine-4,6-diamine]",free tubulin vs microtubules in cell lysate fractions,tubulin,significant fold-change increase in prevention of tubulin formation
same,CYCLIN B1 normalized to VINCULIN in tumors,CYCLIN B1,consistent reduction in Cyclin B1 relative to Vinculin
same,relative Aspc1 cell viability over time,Aspc1 cells [1],dose and time-dependent decrease in human PDA cell viability
same,distribution into PDA tumor tissue,[2],effective biodistribution into tumor tissues; also recorded: distributes into PDA tissues
same,"cell cycle arrest (percent cells in G0/G1, S, G2/M; percent in mitosis PH3+/4N)","Aspc1 cells [3]; 0.1 μM or 1.0 μM, 24 hours (FIGS. 1b-1d)",dose and time-dependent effect in cell cycle arrest
same,percent of Aspc1 cells with DNA content >4N (polyploidy),"Aspc1 cells [3]; 0.1 μM or 1.0 μM, 24, 48, 72 hours (FIGS. 2a, 2b)",dose and time-dependent increase in the amount of human PDA cells affected by polyploidy
same,mitotic arrest and apoptosis,Aspc1 cells [3]; multiple PDA cell lines (summary statement),induce mitotic arrest and apoptosis in multiple PDA cell lines
